The source of these data is patent publication US9150489B2, “1-(2-fluorobiphenyl-4-yl)-alkyl carboxylic acid derivatives for the therapy of transthyretin amyloidosis” (CHIESI FARMACEUTICI S.p.A., priority 2010, dated 2015).

In assay [1] the target is T1, wild-type human transthyretin (TTR) (Homo sapiens, UniProt P02766).
T1 construct: made in house; host or cells: E. coli
To be noted: cited from earlier work.

For another assay, the target named is T2, V 122I TTR (Homo sapiens, UniProt P02766, V142I).
T2 construct: made in house; host or cells: E. coli
The assay is described as follows: In vitro fibrillogenesis by V122I TTR at acidic pH (turbidity at 400 nm). Type of assay: biochemical. Particulars: 3.6 μM TTR, 10.8 μM inhibitor, pH 4.4, 37° C., average of two measurements; for inhibition at 10.8 µM: read-out: inhibitory effect on V 122I TTR fibrillogenesis. An excerpt: (§1) The aim of this study was to evaluate the inhibitory effect of the same representative compounds of the inventions tested in Example 1 in vitro fibrillogenesis by human wild-type TTR and two major amyloidogenic variants (V30M and V 122I) at moderately acidic pH, in comparison to reference compounds. To highlight the inhibitory effect of CHF 5074 and CHF4795 versus diflunisal and tafamidis on in vitro fibrillogenesis by wild-type, V30M and V122I TTR at moderately acid pH, we followed the kinetics of fibril formation by these proteins, by monitoring the increase in turbidity at 400 nm as reported in Johnson et al., 2008, J. Med. Chem., 51:260 (which is incorporated herein by reference), upon incubation with TTR. The final concentration of TTR was of 3.6 μM, which is close to its physiological plasma concentration, with fibrillogenesis inhibitors at a final concentration of 10.8 μM. According to the procedure adopted for other inhibitors of fibrillogenesis (Johnson et al., 2008, J. Med. Chem., 51:260), TTR was incubated with each inhibitor at neutral pH (10 mM Na phosphate buffer, pH 7.2, 100 mM KCl, 1 mM EDTA) for 30 minutes at ambient temperature, prior to the incubation of the protein at acidic pH (200 mM Na Acetate buffer, pH 4.4, 100 mM KCl, 1 mM EDTA) at 37° C. in order to promote fibrillogenesis. Inhibitory effect data represent the average of two independent measurements for each compound.

The next assay concerns the target T3, human wild-type TTR (Homo sapiens, UniProt P02766).
T3 construct: made in house; host or cells: E. coli
The assay is described as follows: In vitro fibrillogenesis by wild-type TTR at acidic pH (turbidity at 400 nm). Particulars: 3.6 μM TTR, 10.8 μM inhibitor, pH 4.4, 37° C., average of two measurements; for inhibition at 10.8 µM: read-out: inhibitory effect on wild-type TTR fibrillogenesis. Type of assay: biochemical.
Excerpt: as §1

The target of a further assay is T4, V30M TTR (Homo sapiens, UniProt P02766, V50M).
T4 construct: made in house; host or cells: E. coli
Briefly: In vitro fibrillogenesis by V30M TTR at acidic pH (turbidity at 400 nm). Type of assay: biochemical. Particulars: 3.6 μM TTR, 10.8 μM inhibitor, pH 4.4, 37° C., average of two measurements.
Excerpt: as §1

Assay [2] concerns the target T1, wild-type human transthyretin (TTR). The assay is described as follows: Competitive binding to wild-type human TTR by fluorometric techniques. Particulars: 20° C.; for emission peak of TTR-bound ANS in the presence of the compound / emission peak of TTR-bound tafamidis in the presence of the compound / emission peak of TTR-bound trans-resveratrol in the presence of the compound: 10 μM compound; for emission peak of TTR-bound ANS in the presence of the compound: 10 μM ANS, excitation 360 nm; for emission peak of TTR-bound ANS in the presence of the compound / emission peak of TTR-bound trans-resveratrol in the presence of the compound: 5 μM TTR; for emission peak of TTR-bound tafamidis in the presence of the compound: 10 μM tafamidis, 10 μM TTR; for emission peak of TTR-bound tafamidis in the presence of the compound / emission peak of TTR-bound trans-resveratrol in the presence of the compound: excitation 320 nm; for emission peak of TTR-bound trans-resveratrol in the presence of the compound: 10 μM trans-resveratrol; for relative binding affinity to TTR (competitive binding assays taken together): 50 mM Na phosphate buffer, pH 7.2, 150 mM NaCl.

Take `O=S(=O)(O)c1cccc2cccc(Nc3ccccc3)c12` [ANS, 8-anilino-1-naphthalene sulfonate]: the “binding affinity for TTR (known property of the fluorescent probes)” value in assay [1] is listed as “relatively low binding affinity”.
In the case of `O=C(O)c1ccc2nc(-c3cc(Cl)cc(Cl)c3)oc2c1` [tafamidis, 2-(3,5-dichlorophenyl)-1,3-benzoxazole-6-carboxylic acid, reference compound], the inhibition at 10.8 µM was ~92% on V 122I TTR and ~75% at human wild-type TTR. Moreover, the “inhibitory effect on V30M TTR fibrillogenesis” value on V30M TTR is “inhibitory effects similar to those observed with wild-type TTR”.
As for `Oc1ccc(/C=C/c2cc(O)cc(O)c2)cc1` [trans-resveratrol, reference compound], the “binding affinity for TTR (known property of the fluorescent probes)” value in assay [1] is reported as “high binding affinity, greater than that of thyroxine”. Besides, the “fluorescence emission of TTR-bound diflunisal exposed to equimolar compound” value in assay [2] (10 μM TTR-bound diflunisal, equimolar compound, excitation 340 nm, pH 7.2) is recorded as “a spectrum similar to that of TTR-bound trans-resveratrol rather than to that of TTR-bound diflunisal was obtained”.
Consider `O=C(O)C1(c2ccc(-c3ccc(Cl)c(Cl)c3)c(F)c2)CC1` [CHF 5074, 1-(3′,4′-dichloro-2-fluorobiphenyl-4-yl)cyclopropanecarboxylic acid], for which, in assay [2] (pH 7.2), the “emission peak of TTR-bound ANS in the presence of the compound” value is “nearly completely abolished”, the “emission peak of TTR-bound tafamidis in the presence of the compound” value is listed as “nearly completely shifted to that of unbound tafamidis” and the “emission peak of TTR-bound trans-resveratrol in the presence of the compound” value was “nearly completely abolished”. In addition, the “relative binding affinity to TTR (competitive binding assays taken together)” value in assay [2] is “higher binding affinity to TTR as compared to trans-resveratrol”. Moreover, the inhibition at 10.8 µM on V 122I TTR was ~92%. Besides, the inhibition at 10.8 µM on human wild-type TTR is ~75%. Besides, on V30M TTR, the “inhibitory effect on V30M TTR fibrillogenesis” value is listed as “inhibitory effects similar to those observed with wild-type TTR”.
Take `O=C(O)c1cc(-c2ccc(F)cc2F)ccc1O` [diflunisal, reference compound]: the inhibition at 10.8 µM on V 122I TTR is ~92%; at human wild-type TTR, ~75%. At V30M TTR, the “inhibitory effect on V30M TTR fibrillogenesis” value was “inhibitory effects similar to those observed with wild-type TTR”.
`CC(C)(C(=O)O)c1ccc(-c2cc(Cl)cc(Cl)c2)c(F)c1` [CHF 4795, 2-methyl-(3′,5′-dichloro-2-fluoro-biphenyl-4-yl) propionic acid]: in assay [2] (pH 7.2), the “emission peak of TTR-bound ANS in the presence of the compound” value is reported as “nearly completely abolished”, the “emission peak of TTR-bound tafamidis in the presence of the compound” value is “nearly completely shifted to that of unbound tafamidis” and the “emission peak of TTR-bound trans-resveratrol in the presence of the compound” value was “nearly completely abolished”. For the same compound, the “relative binding affinity to TTR (competitive binding assays taken together)” value in assay [2] is “higher binding affinity to TTR as compared to trans-resveratrol”. Also, the “inhibitory effect on V 122I TTR fibrillogenesis” value on V 122I TTR is “about 92%”. The “inhibitory effect on wild-type TTR fibrillogenesis” value on human wild-type TTR is recorded as “about 75%”. The “inhibitory effect on V30M TTR fibrillogenesis” value on V30M TTR is reported as “inhibitory effects similar to those observed with wild-type TTR”.
